Assays:
Assay type in all cases: in vivo
[1] = system: rat model of inflammatory pain (formalin-injected paw); test: Formalin flinch test; details: i.p.
Method: (§1) Inflammatory (Formalin flinch test) and chronic pain (L5/L6 nerve ligation injury) models were used as assays in both rats and mice.
Animals are habituated to the their local environment for about 30 min prior to testing. The formalin test is carried out in a 30×30×30 cm chamber with the front and bottom of the chambers made of clear plexi-glass. Mirrors are placed at a 45° angle under the chambers in order to have an un-obstructive view of the paws. Animals are restrained manually and 2% formalin (aq) is injected subcutaneously into the planar surface of the left paw with a 30 gauge needle. The numbers of paw flinches are then recorded in 5 min intervals from the time of injection for a 60 min period. Elevations of the paw, licking and biting of the injected paw were counted as “flinches”. The […] or “first phase” of the nociceptive response peaked at 5 min after formalin injection and the inflammatory or “second phase” peaked at 30 min after formalin injection. The number of flinches in the first 10 min were representative of the […] phase and the number of flinches from 10 min until 60 min were representative of the inflammatory phase. Antinociception for both phase I and phase II was calculated as follows: […]
Potency (A50) is calculated from the full dose response curve for both phase I and phase II.

[2] = system: rat model of chronic pain (L5/L6 spinal nerve ligation); test: L5/L6 nerve ligation injury, tactile allodynia (von Frey)
Method: as §1
(§2) Nerve ligation injury was performed according to the method described previously (Kim and Chung). This methodology produces signs of tactile allodynia and thermal hyperalgesia. Rats were anesthetized with halothane and the L5 and L6 spinal nerves were exposed, carefully isolated, and tightly ligated with 4-0 silk suture distal to the dorsal root ganglia (DRG). After ensuring homeostatic stability the wounds were sutured, and the animals were allowed to recover in individual cages. Sham-operated rats were prepared in an identical fashion except that the L5 and L6 spinal nerves were not ligated. Compound 17 was tested in rats after L5/L6 nerve ligation. Compound administration was directly into the hind paw (i.paw) or into the peritoneal cavity (i.p.).
In the evaluation of the tactile allodynia, the paw withdrawal threshold was determined in response to probing with calibrated von Frey filaments. The rats were kept in suspended cages with wire mesh floors and the von Frey filaments were applied perpendicularly to the planar surface of the paw of the rat until it bent slightly, and was held for 3 to 6 s, or until the paw is withdrawn. […] The 50% paw withdrawal threshold was determined by the nonparametric method. […]

[3] = system: rat model of chronic pain (L5/L6 spinal nerve ligation); test: L5/L6 nerve ligation injury, thermal hyperalgesia
Method: as §1, §2

Question: With `NC(=O)CCCN(CCCC1CCCCC1)C(=O)Nc1ccccc1` [Compound 17, 4-[1-(3-cyclohexylpropyl)-3-phenylureido]butyramide] as the compound, how does the “A50 Formalin Phase I” value ([1]; phase I (first 10 min)) read?
Answer: <0.01 mg/kg

Question: What about the “A50 Formalin Phase II” value ([1]; phase II (10-60 min)) of the same compound?
Answer: 0.01 mg/kg

Question: And the antiallodynic effect ([2]; 100 μg (in 50 μl) into the paw)?
Answer: 90%

Question: And the “A50 L5/L6 antiallodynia” value ([2]; i.paw)?
Answer: <30 mg/paw

Question: What about the “antihyperalgesic response to thermal testing” value ([3]; 30 μg (in 50 μl) into the paw) of the same compound?
Answer: 100%

Question: And the “A50 L5/L6 antihyperalgesia” value ([3]; i.paw)?
Answer: <30 μg/paw
